In patent US20100267561A1, “HERBICIDAL PYRIDAZINONE DERIVATIVES” (priority 2007, published 2010):
Like-named read-outs stand apart in the source and are kept apart here.

What was measured:
Assay type in all cases: in vivo
[1] = test system: barnyardgrass (Echinochloa crus-galli); test: Test A pre-/postemergence plant response; conditions: Echinochloa crus-galli, 240 h, read-out: Plant response rating, Barnyardgrass; for pest or weed control at 31 g/ha: 31 g ai/ha; for pest or weed control at 125 g/ha: 125 g ai/ha; for pest or weed control at 500 g/ha: 500 g ai/ha
How it was run: (§1)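 Seeds were planted in blended loam soil and sand, then treated preemergence by directed soil spray. At that time, emerged plants (one- to two-leaf, 2–10 cm) received postemergence applications of the same surfactant-containing formulation. Injury was assessed visually on a 0–100 scale after approximately 10 days.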

corn (Zea mays) = test: Test A pre-/postemergence plant response; conditions: Zea mays, 240 h; for Corn plant response rating (crop injury, 0 = no effect, 100 = complete kill) at 31 g/ha: 31 g ai/ha; for Corn plant response rating (crop injury, 0 = no effect, 100 = complete kill) at 125 g/ha: 125 g ai/ha; for Corn plant response rating (crop injury, 0 = no effect, 100 = complete kill) at 500 g/ha: 500 g ai/ha
How it was run: as §1

[2] = test system: giant foxtail (Setaria faberi); test: Test A pre-/postemergence plant response; conditions: Setaria faberi, 240 h, read-out: Plant response rating, Foxtail, Giant; for pest or weed control at 31 g/ha: 31 g ai/ha; for pest or weed control at 125 g/ha: 125 g ai/ha; for pest or weed control at 500 g/ha: 500 g ai/ha
How it was run: as §1

[3] = test system: large crabgrass (Digitaria sanguinalis); test: Test A pre-/postemergence plant response; conditions: Digitaria sanguinalis, 240 h, read-out: Plant response rating, Crabgrass, Large; for pest or weed control at 31 g/ha: 31 g ai/ha; for pest or weed control at 125 g/ha: 125 g ai/ha; for pest or weed control at 500 g/ha: 500 g ai/ha
How it was run: as §1

[4] = test system: wheat (Triticum aestivum); test: Test A pre-/postemergence plant response; conditions: Triticum aestivum, 240 h, read-out: Plant response rating, Wheat; for plant injury at 31 g/ha: 31 g ai/ha; for plant injury at 125 g/ha: 125 g ai/ha; for plant injury at 500 g/ha: 500 g ai/ha
How it was run: as §1

[5] = test system: barnyardgrass (Echinochloa crus-galli); test: Test B flooded paddy test plant response; conditions: Echinochloa crus-galli, read-out: Plant response rating, Barnyardgrass; for pest or weed control at 250 g/ha: 250 g ai/ha; for pest or weed control at 62 g/ha: 62 g ai/ha
How it was run: (§2)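 Step one: raise plants to 2 leaves. Step two: flood pots 3 cm over the soil and apply compound into the water, keeping this depth. Step three: after 13–15 greenhouse days, score visually versus controls, 0–100, where 100 means complete control.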

rice (Oryza sativa) = test: Test B flooded paddy test plant response; conditions: Oryza sativa, read-out: Plant response rating, Rice; for plant injury at 250 g/ha: 250 g ai/ha; for plant injury at 62 g/ha: 62 g ai/ha
How it was run: as §2

[6] = test system: umbrella sedge (Cyperus difformis); test: Test B flooded paddy test plant response; conditions: Cyperus difformis, read-out: Plant response rating, Sedge, Umbrella; for pest or weed control at 250 g/ha: 250 g ai/ha; for pest or weed control at 62 g/ha: 62 g ai/ha
How it was run: as §2

[7] = post-emergence, Postemergence, 0 to 100 scale (0 no effect, 100 complete control)
[8] = post-emergence, Postemergence, 0 to 100 scale, 0 no effect, 100 complete control
[9] = pre-emergence, Preemergence, 0 to 100 scale, 0 is no effect, 100 is complete control
[10] = pre-emergence, Preemergence, 0 to 100 scale (0 no effect, 100 complete control)
[11] = Flood (flooded paddy test), scale 0 to 100, 0 no effect, 100 complete control
[12] = Flood (flooded paddy test), 125 g ai/ha, scale 0 to 100, 0 no effect, 100 complete control
[13] = Flood, 31 g ai/ha, scale 0 to 100

Row | Structure (SMILES) | pest or weed control at 31 g/ha [1, 7] [%] | pest or weed control at 125 g/ha [1, 8] [%] | pest or weed control at 31 g/ha [1, 9] [%] | pest or weed control at 125 g/ha [1, 10] [%] | Corn plant response rating (crop injury, 0 = no effect, 100 = complete kill) at 31 g/ha (corn (Zea mays); [7]) [%] | Corn plant response rating (crop injury, 0 = no effect, 100 = complete kill) at 125 g/ha (corn (Zea mays); [8]) [%] | Corn plant response rating (crop injury, 0 = no effect, 100 = complete kill) at 31 g/ha (corn (Zea mays); [9]) [%] | Corn plant response rating (crop injury, 0 = no effect, 100 = complete kill) at 125 g/ha (corn (Zea mays); [10]) [%] | pest or weed control at 31 g/ha [2, 7] [%] | pest or weed control at 125 g/ha [2, 8] [%] | pest or weed control at 31 g/ha [2, 9] [%] | pest or weed control at 125 g/ha [2, 10] [%] | pest or weed control at 31 g/ha [3, 7] [%] | pest or weed control at 125 g/ha [3, 8] [%] | pest or weed control at 125 g/ha [3, 10] [%] | plant injury at 125 g/ha [4, 8] [%] | plant injury at 125 g/ha [4, 10] [%] | pest or weed control at 250 g/ha [5, 11] [%] | plant injury at 250 g/ha (rice (Oryza sativa); [11]) [%] | pest or weed control at 250 g/ha [6, 11] [%] | further results
1 | Cn1ncc(O)c(-c2nn(-c3ccc(C(F)(F)F)cc3)cc2Br)c1=O [Compound 87, 4-[4-bromo-1-[4-(trifluoromethyl)phenyl]-1H-pyrazol-3-yl]-5-hydroxy-2-methyl-3(2H)-pyridazinone] | 0 | 90 | 0 | 50 | 0 | 40 | 0 | 20 | 20 | 80 | 20 | 90 | 10 | 80 | 70 | 50 | 20 | 0 | 0 | 0 | pest or weed control at 31 g/ha [3, 9]: 20%; plant injury at 31 g/ha [4, 7]: 20%; plant injury at 31 g/ha [4, 9]: 0%; pest or weed control at 62 g/ha ([5]; Flood, scale 0 to 100): 0%; plant injury at 62 g/ha (rice (Oryza sativa); Flood, scale 0 to 100): 0%; pest or weed control at 62 g/ha ([6]; Flood, scale 0 to 100): 0%
2 | Cc1cn(-c2ccc(C(F)(F)F)cc2)nc1-c1c(O)cnn(C)c1=O [Compound 85, 5-hydroxy-2-methyl-4-[4-methyl-1-[4-(trifluoromethyl)phenyl]-1H-pyrazol-3-yl]-3(2H)-pyridazinone] | 0 | 30 | 0 | 40 | 0 | 0 | 0 | 0 | 0 | 60 | 0 | 100 | 0 | 40 | 70 | 20 | 20 | 0 | 0 | 0 | pest or weed control at 31 g/ha [3, 9]: 10%; plant injury at 31 g/ha [4, 7]: 0%; plant injury at 31 g/ha [4, 9]: 0%; pest or weed control at 62 g/ha ([5]; Flood, scale 0 to 100): 0%; plant injury at 62 g/ha (rice (Oryza sativa); Flood, scale 0 to 100): 0%; pest or weed control at 62 g/ha ([6]; Flood, scale 0 to 100): 0%
3 | Cc1cc(-c2ccc(Br)cc2)nn1-c1c(O)cnn(C2CCCCO2)c1=O (stereo not drawn) [Compound 77, 4-[3-(4-bromophenyl)-5-methyl-1H-pyrazol-1-yl]-5-hydroxy-2-(tetrahydro-2H-pyran-2-yl)-3(2H)-pyridazinone] | – | 50 | – | 0 | – | 80 | – | 30 | – | 80 | – | 30 | – | 70 | 10 | 70 | 0 | 0 | 0 | 0 | pest or weed control at 500 g/ha [1, 8]: 100%; pest or weed control at 500 g/ha [1, 10]: 100%; Corn plant response rating (crop injury, 0 = no effect, 100 = complete kill) at 500 g/ha (corn (Zea mays); [8]): 100%; Corn plant response rating (crop injury, 0 = no effect, 100 = complete kill) at 500 g/ha (corn (Zea mays); [10]): 80%; pest or weed control at 500 g/ha [2, 8]: 100%; pest or weed control at 500 g/ha [2, 10]: 100%; pest or weed control at 500 g/ha [3, 8]: 100%; pest or weed control at 500 g/ha [3, 10]: 100%; plant injury at 500 g/ha [4, 8]: 90%; plant injury at 500 g/ha [4, 10]: 80%; pest or weed control at 62 g/ha [5, 11]: 0%; pest or weed control at 125 g/ha [5, 12]: 0%; pest or weed control at 31 g/ha [5, 13]: 0%; plant injury at 62 g/ha (rice (Oryza sativa); [11]): 0%; plant injury at 125 g/ha (rice (Oryza sativa); [12]): 0%; plant injury at 31 g/ha (rice (Oryza sativa); [13]): 0%; pest or weed control at 62 g/ha [6, 11]: 0%; pest or weed control at 125 g/ha [6, 12]: 0%; pest or weed control at 31 g/ha [6, 13]: 0%
